# Test results from patent US4252798A, “Reversible male contraception” (The Upjohn Company, priority 1980, dated 1981).
# What was measured:
# tom = test: Male contraception by daily treat given to tom; assay type: in vivo, tom (cat)
# Protocol: A 6 kg. tom who has previously sired offspring is given a treat daily containing 20 mg. of 17β-methoxy-2α-methyl-5α-androstan-3-one. […] Eighty days following cessation of administration of the treat, the tom, upon sexual intercourse, fertilizes the same ovulating female at the time of her estrus.
# [1] = test system: healthy male mammal post-puberty (man); test: Male contraception by oral administration to man; assay type: in vivo
# Protocol: A 60 kg. Person who is the admitted parent of 2 children is given one 50 mg. tablet daily of 17β-methoxy-2α-methyl-5α-androstan-3-one.
# A 60 kg. Person is treated daily with one teaspoonful of a suspension of 2α,3α-epithio-17β-ethoxy-5α-androstane (100 mg./ml.).
# normal men = conditions: six normal men; Morse et al., J. Clin. Endocrinol. Metab. 37, 882 (1973); cited from earlier work
# men = conditions: cited from earlier work
# [2] = test system: rat ABP (androgen binding protein) and rat AR (androgen receptor); test: ABP/AR ratio: relative affinity (vs DHT) for rat ABP and rat AR; conditions: ratio of relative affinity for rat ABP to relative affinity for rat AR, each compared to DHT
# Text: The present invention includes steroids which have a high affinity for rat ABP (androgen binding protein) as compared to DHT (dihydrotestosterone, 17β-hydroxy-5α-androst-3-one). N. A. Musto et al. in Endo. Res. Comm. 4, 147 (1977) have described a procedure for isolation and purification of rat ABP. Utilizing the purified rat ABP, and following the procedure of E. M. Ritzen et al. described in J. Biol. Chem. 249, 6597 (1974), the relative affinity of various non-estrogenic-type steroids can readily be determined. The dissociation constant (Kd) measures the affinity of a compound for a protein. The dissociation constant for DHT and the non-estrogenic-type steroids is determined. […]
# E. M. Wilson and F. S. French in the J. Biol. Chem. 251, 5620 (1976) have described a procedure for isolation and partial purification of rat AR. Utilizing the rat AR and following the procedure of G. Verhoeven et al. described in Steroids 26, 149 (1975) the relative affinity of various steroids can readily be determined. The dissociation constant for DHT and non-estrogenic steroids is determined. […] D. J. Tindall, et al., in the International Journal of Andrology, Supplement 2 (1978) set forth the preferred method for determining the relative affinities of a steroid for ABP and AR from which the ABP/AR ratio can be calculated. […]
compound,measurement,setting,value
CO[C@H]1CC[C@H]2[C@@H]3CC[C@H]4CC(=O)[C@H](C)C[C@]4(C)[C@H]3CC[C@]12C [17β-methoxy-2α-methyl-5α-androstan-3-one],fertilization of an ovulating female at estrus following sexual intercourse,"tom; Example 6: 6 kg tom, treat with 20 mg daily, after 60 days",does not fertilize
same,fertility on continuous daily administration,tom; Example 6: continued daily treat,remains infertile
same,fertilization of the same ovulating female after cessation (reversibility),tom; Example 6: eighty days following cessation of the treat,fertilizes
same,fertilization of a fertile female following sexual intercourse,[1]; Example 1: 70 10 mg tablet twice daily for about 100 days,does not fertilize
same,fertility on continued administration,[1]; Example 1: continued twice daily,remains infertile
same,fertilization of a fertile female following sexual intercourse,[1]; Example 2: 80 200 mg capsule four times daily for 60 days,does not fertilize
same,fertility on continued administration,[1]; Example 2: continued 4 times daily,remains infertile
same,fertility on continued administration,[1]; Example 4: continued daily,remains infertile
"CO[C@H]1CC[C@H]2[C@@H]3CC[C@H]4C[C@@H]5S[C@@H]5C[C@]4(C)[C@H]3CC[C@]12C [2α,3α-epithio-17β-methoxy-5α-androstane]",fertilization of a fertile female following sexual intercourse,"[1]; Example 3: 70 one-half teaspoonful/day of elixir (100 mg./ml.), after 60 days",does not fertilize
same,fertility on continued administration,[1]; Example 3: continued daily elixir,remains infertile
CCC(=O)O[C@H]1CC[C@H]2[C@@H]3CCC4=CC(=O)CC[C@]4(C)[C@H]3CC[C@]12C [testosterone propionate],sperm concentration,normal men,sharp drop
same,testicular testosterone,normal men,decrease
"CCO[C@H]1CC[C@H]2[C@@H]3CC[C@H]4C[C@@H]5S[C@@H]5C[C@]4(C)[C@H]3CC[C@]12C [2α,3α-epithio-17β-ethoxy-5α-androstane]",fertilization of a fertile female following sexual intercourse,"[1]; Example 5: 60 one teaspoonful daily of suspension (100 mg./ml.), after 60 days",does not fertilize
same,fertility on further administration,[1]; Example 5: further administration,remains infertile
CCCCCCC(=O)O[C@H]1CC[C@H]2[C@@H]3CCC4=CC(=O)CC[C@]4(C)[C@H]3CC[C@]12C [testosterone enanthate],effect on sperm in men who acknowledged paternity,"men; Steinberger et al., Fertility and Sterility 27, 216 (1976)",azoospermia
same,sperm count,"men; seven men, Mauss et al., Acta. Endocrinol. 78, 373 (1975)","less than 3,000,000 sperm/ml"
"C[C@@H]1C[C@@]2(C)C(=CC1=O)C[C@@H](C)[C@H]1[C@@H]3CC[C@H](O)[C@@]3(C)CC[C@@H]12 [2α,7α-dimethyltestosterone]",ABP/AR ratio,[2],about 6.0
